Consider 5 molecules from patent US20250296928A1, “A SYNTHESIS SCHEME AND PROCEDURES FOR PREPARING A SIK3 INHIBITOR AND INTERMEDIATES THEREOF” (iOmx Therapeutics AG, priority 2021, published 2025).

A short description of series [1]: Mouse liver microsomal stability. In kind it is in vitro ADME.
Series [2] in a line: Human plasma-protein binding. The class given is in vitro ADME. Particulars: for fraction unbound: human, plasma.
Series [3] can be described thus: Screening PK in mice, 30 mg/kg po. The class given is in vivo.
Series [4] is described as follows: Murine plasma protein binding. The class given is in vitro ADME, mouse.
Series [5] in a line: Full pharmacokinetic study with oral administration in mice. The class given is in vivo.
A short description of series [6]: Human liver microsomal stability. The class given is in vitro ADME.
The test system of series [7] is NFKB activity (PANC-1). The series can be described thus: TNF-induced NFKB activity in PANC-1 cells. In kind it is cell-based.
The target of series [8] is T1, SIK3 (Homo sapiens, UniProt Q9Y2K2).
T1 construct: purchased ProQuinase, Freiburg, Germany
T1 sequence (Q9Y2K2 whole entry): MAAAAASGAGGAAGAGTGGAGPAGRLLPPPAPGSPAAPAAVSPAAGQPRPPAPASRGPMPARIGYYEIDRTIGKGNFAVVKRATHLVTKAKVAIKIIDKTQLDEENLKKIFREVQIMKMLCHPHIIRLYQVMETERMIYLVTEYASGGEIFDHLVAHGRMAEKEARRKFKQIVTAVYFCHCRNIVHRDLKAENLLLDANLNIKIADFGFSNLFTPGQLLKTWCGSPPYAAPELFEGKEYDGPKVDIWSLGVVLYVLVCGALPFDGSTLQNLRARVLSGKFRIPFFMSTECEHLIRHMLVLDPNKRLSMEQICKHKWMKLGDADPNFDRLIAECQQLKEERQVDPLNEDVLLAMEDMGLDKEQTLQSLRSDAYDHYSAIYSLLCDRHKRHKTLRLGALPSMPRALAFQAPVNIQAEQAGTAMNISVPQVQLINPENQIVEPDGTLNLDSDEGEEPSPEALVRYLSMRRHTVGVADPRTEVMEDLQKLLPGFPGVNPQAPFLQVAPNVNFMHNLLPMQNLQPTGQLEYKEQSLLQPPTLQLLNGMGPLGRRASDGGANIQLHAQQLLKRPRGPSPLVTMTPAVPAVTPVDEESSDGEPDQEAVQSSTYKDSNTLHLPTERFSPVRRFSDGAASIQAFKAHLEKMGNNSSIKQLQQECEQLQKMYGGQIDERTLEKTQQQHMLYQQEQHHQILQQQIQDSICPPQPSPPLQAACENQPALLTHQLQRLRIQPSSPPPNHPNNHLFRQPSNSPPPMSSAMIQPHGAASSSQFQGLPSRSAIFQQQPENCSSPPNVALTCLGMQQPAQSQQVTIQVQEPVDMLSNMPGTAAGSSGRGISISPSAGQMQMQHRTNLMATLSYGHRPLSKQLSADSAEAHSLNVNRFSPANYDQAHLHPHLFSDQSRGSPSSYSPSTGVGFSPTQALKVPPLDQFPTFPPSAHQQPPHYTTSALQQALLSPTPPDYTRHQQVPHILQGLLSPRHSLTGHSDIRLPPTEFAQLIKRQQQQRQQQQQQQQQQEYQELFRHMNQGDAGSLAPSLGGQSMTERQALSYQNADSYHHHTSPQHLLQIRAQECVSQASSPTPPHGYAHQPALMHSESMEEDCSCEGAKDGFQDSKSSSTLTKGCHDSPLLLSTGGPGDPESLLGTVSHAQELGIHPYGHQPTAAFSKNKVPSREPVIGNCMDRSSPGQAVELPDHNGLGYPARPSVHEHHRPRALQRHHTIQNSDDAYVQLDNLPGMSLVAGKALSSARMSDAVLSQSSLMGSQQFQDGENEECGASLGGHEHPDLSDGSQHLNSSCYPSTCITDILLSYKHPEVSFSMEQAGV
The series can be described thus: Radiometric protein kinase assay (33PanQinase Activity Assay), SIK3. The class given is biochemical. As to the method:
(§1) Incorporation of 33Pi was determined with a microplate scintillation counter (Microbeta, Wallac).

The subject of series [9] is HDAC4 phosphorylation. Put plainly: TNF-induced phosphorylation of HDAC4. The class given is cell-based. The note with it: for Inhibition of HDAC4 phosphorylation: TNF-induced; for Inhibition of HDAC phosphorylation: summary Table 4.3.
Series [10] relates to MC38 syngeneic tumour model. Put plainly: MC38 syngeneic tumour model, comparative study E9 versus dasatinib (FIG. 5). The class given is in vivo, mice. The note with it: 25 mg/kg BID.
Description: Left hand column=compound treatment group; and right hand column=vehicle treatment group. Y axes=Tumour volume (mm3); X axes=Days after inoculation.
In series [11] the target is T2, SIK2 (Homo sapiens, UniProt Q9H0K1).
T2 construct: purchased ProQuinase, Freiburg, Germany
T2 sequence (Q9H0K1 whole entry): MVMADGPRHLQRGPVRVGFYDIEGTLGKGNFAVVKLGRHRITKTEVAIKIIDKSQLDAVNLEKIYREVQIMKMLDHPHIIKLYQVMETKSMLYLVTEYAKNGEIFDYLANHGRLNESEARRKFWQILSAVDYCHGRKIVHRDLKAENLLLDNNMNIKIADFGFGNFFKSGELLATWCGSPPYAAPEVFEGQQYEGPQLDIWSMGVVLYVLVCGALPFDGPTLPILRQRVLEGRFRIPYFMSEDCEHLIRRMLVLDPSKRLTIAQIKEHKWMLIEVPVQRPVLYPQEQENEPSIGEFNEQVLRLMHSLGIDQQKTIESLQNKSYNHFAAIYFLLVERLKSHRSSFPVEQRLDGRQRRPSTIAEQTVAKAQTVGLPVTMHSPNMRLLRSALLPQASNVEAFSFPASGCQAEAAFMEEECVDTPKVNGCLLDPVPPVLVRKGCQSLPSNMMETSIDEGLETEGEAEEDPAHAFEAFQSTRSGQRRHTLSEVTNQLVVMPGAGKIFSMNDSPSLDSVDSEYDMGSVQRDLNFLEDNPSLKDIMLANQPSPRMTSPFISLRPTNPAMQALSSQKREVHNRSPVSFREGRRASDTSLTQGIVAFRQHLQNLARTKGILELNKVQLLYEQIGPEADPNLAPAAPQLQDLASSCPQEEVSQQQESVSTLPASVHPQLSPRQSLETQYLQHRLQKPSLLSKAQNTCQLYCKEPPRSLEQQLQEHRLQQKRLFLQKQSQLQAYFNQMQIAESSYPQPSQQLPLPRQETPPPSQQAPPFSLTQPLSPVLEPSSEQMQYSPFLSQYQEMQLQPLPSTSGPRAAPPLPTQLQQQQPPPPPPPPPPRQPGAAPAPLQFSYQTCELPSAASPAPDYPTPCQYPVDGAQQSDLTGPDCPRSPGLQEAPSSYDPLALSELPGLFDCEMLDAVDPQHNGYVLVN
The series can be described thus: Radiometric protein kinase assay (33PanQinase Activity Assay), SIK2. The class given is biochemical. Particulars: ATP 1.0 μM. Here is the method: as §1

Series [12] has as its system NFKB activity (MC38). The series can be described thus: TNF-induced NFKB activity in MC38 cells. In kind it is cell-based, mouse. The note with it: for Inhibition of NFKB activity: summary Table 4.3, cell line not stated; for Inhibition of NFKB activity (MC38): TNF-induced, 10 ng/ml rMuTNF. As to the method: TNF-induced NFKB activity in MC38 cells was measured analogously to the assay in PANC-1 cells described in connection with Example 9.2 (Table 9C) of WO2020/083926), except that 10 ng/ml rMuTNF was used.

A short description of series [13]: Human hepatocyte stability. The class given is in vitro ADME. Particulars: for clearance classification: from human hepatocyte stability.
For series [14], the system named is MC38 cells. The series can be described thus: MC38 syngeneic tumour model, in-vivo anti-cancer efficacy.
Protocol: Y-axis=Mean tumour volume (mm3). Error bars SEM Statistical significance was calculated with one-way ANOVA analysis including Tukey's multiple comparison analysis. X-axis=Days. (B) Probability of tumour volume <1000 mm3 of the mice in (A). Y-axis: Probability of occurrence of tumour volumes <=1000 mm3 upon treatment. X-axis: Days. […] (C) to (H) Tumour growth curves of individual mice; Y-axis: Tumour volume (mm3), X-axis: Days.
For series [15], the system named is P-gp (MDR1). The series can be described thus: Permeability and efflux in MDCK-MDR1 cells. The class given is in vitro ADME. The note with it: dog.
Series [16] can be described thus: Mouse hepatocyte stability. In kind it is in vitro ADME.
Series [17] is described as follows: in vitro. Particulars: dog, MDCK.
For series [18], the system named is MDCK-wild type cells. Put plainly: Permeability and efflux in MDCK-wild type cells.
Series [19] relates to MDCK-MDR1 cells (P-gp). Put plainly: Permeability and efflux in MDCK-MDR1 cells. The class given is in vitro ADME.
The mark [20] stands for this setting: mice, 30 mg/kg po, Free plasma concentration.
Setting [21] is: mice, 30 mg/kg po, Total plasma concentration.
Where [22] appears, read: Total plasma concentration at 30 mg/kg p.o dose, C7 = 1x.
The mark [23] stands for this setting: mouse, plasma, mice, 30 mg/kg po, Free.

On to `Cc1nc(Nc2ncc(C(=O)Nc3c(Cl)ccnc3C)s2)cc(N2CCN(CCO)CC2)n1` [Compound B3], for which, in series [1] (mouse liver microsomes), the “Mouse liver microsomal stability: Half-life” value was 62 min and the “Mouse liver microsomal stability: Intrinsic clearance” value was found to be 22 µL/min/mg. In addition, the “Human plasma-protein binding: Percentage unbound” value in series [2] amounted to 7%. Further, the “Cmax after 2 h” value in [3] (30 mg/kg po, 2 h) was 56 ng/mL. In addition, the “Free plasma concentration after 6 h” value in series [3] (30 mg/kg po, 6 h, free) is listed as 3 nM. The “Plasma concentration after 6 h” value in [3] (30 mg/kg po, 6 h, total) is reported as 29 nM. Also, the “Murine plasma protein binding: Percentage unbound” value in series [4] (murine plasma) is 11%. In addition, in [5] (mice, 30 mg/kg po, Free), the Tmax is 30 min and the t1/2 turned out to be 144 min. Moreover, in series [5] (setting [20]), the Cmax stood at 10.7 ng/mL. Also, in [5] (mice, 30 mg/kg po, Total), the “% AUCextrap” value turned out to be 14%, the AUCinf was found to be 697 nM·h, the AUClast stood at 589 nM·h and the Tmax was 30 min. This molecule also displayed a t1/2 in series [5] (mice, 30 mg/kg po, Total) of 144 min. Further, the Cmax in series [5] (setting [21]) came out at 99 ng/mL. Further, in [6] (human liver microsomes), the “Human liver microsomal stability: Half-life” value was found to be 58 min and the “Human liver microsomal stability: Intrinsic clearance” value came to 24 µL/min/mg.

Take `Cc1nc(Nc2ncc(C(=O)Nc3c(C)csc3Cl)s2)cc(N2CCN(C)CC2)n1` [Compound D9]: in series [7], the “Inhibition of NFKB activity (PANC-1)” value was “+”. Besides, the IC50 in [8] (ATP 1.0 μM) is approximately 60 nM. Also, in series [3] (30 mg/kg po, 6 h, free), the “Free plasma concentration after 6 h” value is reported as 8 nM. Also, in series [9], the “Inhibition of HDAC4 phosphorylation” value is on record as “+”.

For `Cc1nc(Nc2ncc(C(=O)Nc3c(CF)csc3Cl)s2)cc(N2CCN(C)CC2)n1` [Compound E9, N-(2-chloro-4-(fluoromethyl)thiophen-3-yl)-2-((2-methyl-6-(4-methylpiperazin-1-yl)pyrimidin-4-yl)amino)thiazole-5-carboxamide], the “average TGI” value in series [10] amounted to 72%. In addition, the clearance classification entry in series [1] (from mouse liver microsomal stability) is on record as “high clearance drugs”; in series [13] it was “high clearance drugs”; in series [16] (from mouse hepatocyte stability), “medium clearance drug”; in series [6] (from human liver microsomal stability), “high clearance drugs”. For the same molecule, the half-life in series [1] (mouse liver microsomes) was approximately 10 min; in series [13] (human hepatocytes), approximately 25 min; in series [16] (mouse hepatocytes) it was approximately 65 min; in series [6] (human liver microsomes), approximately 10 min. For the same molecule, the microsomal CLint in series [1] (mouse liver microsomes, read-out: Mouse liver microsomal stability: Intrinsic clearance) lay in the range of 130 to 150 µL/min/mg; in series [6] (human liver microsomes, read-out: Human liver microsomal stability: Intrinsic clearance), 130 to 150 µL/min/mg. The figures for the fraction unbound in [2] (read-out: Human plasma-protein binding: Percentage unbound), in series [2] (read-out: human plasma protein binding) and in series [4] (mouse plasma) were 0.01, less than 0.05 and less than 0.05, respectively. This molecule also registered a concentration for half-maximal inhibition (IC50) in series [11] of less than 10 nM. The “SIK3 IC50 (nM), relative to C7” value in series [8] (relative to C7 = 1x) was found to be 0.3x. Further, in series [8] (relative to C7 and D9), the “potency against SIK3 improved over C7 and D9” value was 2-3 times. Further, the “Inhibition of NFKB activity” value in series [12] is on record as “++”. Also, in [3] (30 mg/Kg po, free), the “improvement for free serum concentration over C7” value amounted to 2 fold. Moreover, the “improvement for total serum concentration over C7” value in series [3] (30 mg/Kg po, total) was found to be 4.5 fold. For the same molecule, the Body weight increase in [14] (25 mg/Kg, BID, po) turned out to be 16.8%; in series [14] (50 mg/Kg, BID, po), 18.7%. Besides, the Tumour growth inhibition in series [14] (25 mg/Kg, BID, po) stood at 74%; in series [14] (50 mg/Kg, BID, po), 69%. The “treatment related side effects and clinical signs” value in series [14] (administered orally) is “no direct treatment related side effects and clinical signs”. Further, the results for the Papp A→B in series [15] and in [17] were 5 ×10⁻⁶ cm/s and 10 ×10⁻⁶ cm/s, respectively. The efflux ratio in [17] was 20 to 30. Further, the “Inhibition of HDAC4 phosphorylation” value in [9] is reported as “++”. The “Inhibition of HDAC phosphorylation” value in series [9] was “++”. Further, the fraction unbound at 4 h in series [4] (mouse, murine plasma, read-out: Murine plasma protein binding: Percentage unbound) came to 0.01. Further, the “AUC0-last (nM*h), relative to C7” value in [5] (setting [22]) amounted to 8.2x. The “C max (ng/ml), relative to C7” value in series [5] (setting [22]) worked out at 5.6x. Besides, in series [5] (setting [22]), the “MRT0-last (h), relative to C7” value was determined as 1.2x. In addition, in series [5] (setting [22]), the “t1/2 (h), relative to C7” value stood at 2x. The “% AUCextrap” value in [5] (mice, 30 mg/kg po, Free) came to 0.49%; in [5] (mice, 30 mg/kg po, Total), 0.49%. Further, the MRTlast in series [5] (mice, 30 mg/kg po, Free) amounted to 203 min. The Rsq is 0.84 in [5] (mice, 30 mg/kg po, Free) and 0.84 in [5] (mice, 30 mg/kg po, Total). Besides, in series [5] (mice, 30 mg/kg po, Free), the Tmax stood at 15 min. The molecule also gave a t1/2 in series [5] (mice, 30 mg/kg po, Free) of 166 min. The same molecule registered an AUC(0-inf) in series [5] (setting [23]) of 0.24 µM·h. Moreover, the AUC(0-t) in [5] (setting [23]) was 0.239 µM·h. The Cmax in [5] (mouse, mice, 30 mg/kg po, Free plasma concentration, read-out: Cmax) is 66.9 ng/mL.

For `Cc1nc(Nc2ncc(C(=O)Nc3c(C)cccc3Cl)s2)cc(N2CCN(CCO)CC2)n1` [Compound A8, N-(2-chloro-6-methylphenyl)-2-[[6-[4-(2-hydroxyethyl)-1-piperazinyl]-2-methyl-4-pyrimidinyl]amino]-5-thiazolecarboxamide], the “Inhibition of NFKB activity (PANC-1)” value in series [7] was “+”. In addition, the “Inhibition of NFKB activity (MC38)” value in series [12] is given as “+”. The peak concentration (Cmax) in [3] (mouse, plasma, 30 mg/kg po, 2 h) is 550 ng/mL. Besides, in series [9], the “Inhibition of HDAC4 phosphorylation” value was “++”.

For `Cc1nc(Nc2ncc(C(=O)Nc3c(C)csc3Cl)s2)cc(N2CCN(CCO)CC2)n1` [Compound C7], in series [1] (mouse liver microsomes), the “Mouse liver microsomal stability: Half-life” value stood at 13 min and the “Mouse liver microsomal stability: Intrinsic clearance” value came out at 110 µL/min/mg. The “Human plasma-protein binding: Percentage unbound” value in series [2] came to 2%. For the same molecule, the “Human plasma-protein binding: Recovery at 4 h” value in series [2] (4 h) is 75%. Also, the “Inhibition of NFKB activity (PANC-1)” value in series [7] is reported as “+”. Besides, in [18], the “Mean Papp A > B” value is reported as 9 10^−6 cm/s. In [12], the “Inhibition of NFKB activity (MC38)” value was “+” and the “Inhibition of NFKB activity” value is “+”. Further, in [13], the clearance classification result is given as “medium-to-high clearance drugs”. Also, in series [13] (human hepatocytes), the “Human hepatocyte stability: Half-life” value is listed as 54 min, the “Human hepatocyte stability: Intrinsic clearance” value stood at 26 µL/min/mg and the “half-life in the presence of human hepatocytes” value is recorded as “approx. 1 h”. In addition, in series [14] (100 mg/Kg, BID, po), the Body weight increase is on record as 1.0%, the Non-treatment related death was 3/16 and the Tumour growth inhibition was determined as 78%. The “Mean Papp A > B” value in series [19] was 2 10^−6 cm/s. Moreover, in series [16] (mouse hepatocytes), the “Mouse hepatocyte stability: Half-life” value amounted to 50 min and the “Mouse hepatocyte stability: Intrinsic clearance” value was 28 µL/min/mg. In [9], the “Inhibition of HDAC4 phosphorylation” value is on record as “+” and the “Inhibition of HDAC phosphorylation” value is given as “+”. Also, the “Murine plasma protein binding: Percentage unbound” value in [4] (murine plasma) was 3%. Moreover, the “Murine plasma protein binding: Recovery at 4 h” value in series [4] (murine plasma, 4 h) is recorded as 87%. Moreover, in series [5] (mice, 30 mg/kg po, Free), the “% AUCextrap” value was 11.24%, the AUCinf amounted to 58.79 nM·h, the AUClast was 52.07 nM·h and the MRTlast is 165 min. Further, in series [5] (mice, 30 mg/kg po, Free), the Rsq was 0.99, the Tmax came to 120 min and the t1/2 is 85.2 min. Also, the Cmax in series [5] (setting [20]) is 21.34 ng/mL. Further, in series [5] (mice, 30 mg/kg po, Total), the “% AUCextrap” value came to 11.24%, the AUCinf is on record as 1,306.48 nM*h, the AUClast is recorded as 1,157.10 nM*h and the MRTlast stood at 165 min. In addition, in series [5] (mice, 30 mg/kg po, Total), the Rsq came to 0.99, the Tmax turned out to be 120 min and the t1/2 was 85.2 min. The Cmax in series [5] (setting [21]) was 474.16 ng/mL. Moreover, in series [6] (human liver microsomes), the “Human liver microsomal stability: Half-life” value worked out at 10 min and the “Human liver microsomal stability: Intrinsic clearance” value is 142 µL/min/mg.
